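Each compound was tested at five concentrations against cells in 96-well plates for 48 hours. Abbreviation: GI50, concentration required for 50% inhibition of growth.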 Calls of active or inactive are those of the source. Cut-off read from the data, not from the text of the source: active = GI50 up to about 1.1 µM and inactive = higher. Some results are limits rather than exact numbers.

Some test systems named below: SF-539; COLO 205; SNB-19; OVCAR-5; HCC 2998; OVCAR-3; TK-10; EKVX; SF-295; ACHN; CCRF-CEM; SK-MEL-28; K562; LOX IMVI; HCT-15; OVCAR-4; A498; CAKI-1; UACC-257; HOP-92.
Holding throughout (test): growth of human tumour cells (NCI), 48 h

`CC(C)CCC1CC2C(=O)N(c3ccccc3)C(=O)C2c2[nH]c3ccccc3c21` (stereo unspecified): the GI50 in the assay on SF-539 was 0.711 µM (active); in the assay on COLO 205 it was 1.38 µM (inactive); in the assay on SNB-19, 1.24 µM (inactive); in the assay on OVCAR-5, 17.5 µM (inactive); in the assay with HCC 2998, 1.42 µM (inactive); in the assay on OVCAR-3, 0.885 µM (active). In addition, the GI50 is 4.53 µM (inactive) in the assay on TK-10; 1.55 µM (inactive) with EKVX; 0.509 µM (active) with SF-295; 6.07 µM (inactive) in the assay with ACHN; 1.33 µM (inactive) in the assay on CCRF-CEM; 4.68 µM (inactive) in the assay with SK-MEL-28. The GI50 in the assay with K562 is 0.571 µM (active); in the assay on LOX IMVI it was 1.08 µM (active); in the assay with HCT-15, 2.71 µM; in the assay with OVCAR-4, 4.76 µM (inactive); with A498, 1.84 µM (inactive).

In the case of `N#CSCC1COc2ccccc2O1` (stereo unspecified), the GI50 with SF-539, in the assay on COLO 205, in the assay with SNB-19, in the assay on OVCAR-5, in the assay on HCC 2998 and in the assay with OVCAR-3 was > 10 µM (inactive) in each case. Besides, the GI50 was > 10 µM (inactive) in the assay on TK-10; > 10 µM (inactive) in the assay on EKVX; > 10 µM (inactive) in the assay on SF-295; > 10 µM (inactive) in the assay on ACHN; 0.628 µM (active) in the assay on CCRF-CEM; > 10 µM (inactive) with SK-MEL-28. The GI50 in the assay on K562 is 1.77 µM (inactive); in the assay on LOX IMVI it was 3.78 µM (inactive); with HCT-15, 9.89 µM; in the assay with OVCAR-4, > 10 µM (inactive); with A498, > 10 µM (inactive); with CAKI-1, > 10 µM (inactive).

As for `CCC1CN2CCC1CC2` (stereo unspecified), the GI50 in the assay on SF-539, in the assay with COLO 205, with SNB-19, in the assay on OVCAR-5, in the assay with HCC 2998 and in the assay on OVCAR-3 was > 100 µM (inactive) throughout. In addition, the GI50 in the assay on EKVX is > 100 µM (inactive); in the assay with SF-295, > 100 µM (inactive); with UACC-257, > 91.4 µM (inactive); in the assay with CCRF-CEM it was > 100 µM (inactive); with SK-MEL-28, > 100 µM (inactive); in the assay with K562, > 100 µM (inactive). In addition, the GI50 is > 100 µM (inactive) in the assay on LOX IMVI, above 100 µM in the assay on HCT-15, > 100 µM (inactive) with OVCAR-4 and > 100 µM (inactive) with A498.

`Cc1nnc2sc(N/N=C/c3ccccc3)nn12`: the GI50 with SF-539, in the assay on COLO 205, in the assay with SNB-19, with OVCAR-5, with OVCAR-3 and in the assay on TK-10 was > 100 µM (inactive) throughout. Besides, the GI50 in the assay on EKVX, with SF-295, in the assay with ACHN, in the assay with UACC-257, in the assay with CCRF-CEM and in the assay with SK-MEL-28 was > 100 µM (inactive) each time. In addition, the GI50 was > 100 µM (inactive) in the assay on K562; > 100 µM (inactive) in the assay on LOX IMVI; above 100 µM with HCT-15; > 100 µM (inactive) in the assay on OVCAR-4; > 100 µM (inactive) in the assay with A498; > 100 µM (inactive) in the assay with CAKI-1.

With `Clc1ncc(C(Cl)(Cl)Cl)nc1-c1ccccc1`, the GI50 was 1.99 µM (inactive) with HOP-92; 2.63 µM (inactive) with SF-539; 1.87 µM (inactive) with COLO 205; 1.69 µM (inactive) with SNB-19; 16.1 µM (inactive) in the assay with OVCAR-5; 1.52 µM (inactive) with HCC 2998. In addition, the GI50 in the assay on OVCAR-3 is 1.72 µM (inactive); in the assay with TK-10 it was 2.3 µM (inactive); in the assay with EKVX, 2.29 µM (inactive); in the assay with SF-295 it was 3.63 µM (inactive); in the assay with ACHN it was 1.68 µM (inactive); with UACC-257, 2.14 µM (inactive). The GI50 with CCRF-CEM was 14.6 µM (inactive); in the assay on SK-MEL-28, 3.79 µM (inactive); in the assay on K562, 2.46 µM (inactive); with LOX IMVI it was 4.13 µM (inactive); with HCT-15 it was 1.21 µM; in the assay with OVCAR-4 it was 4.04 µM (inactive). In addition, in the assay on CAKI-1, the GI50 is 2.2 µM (inactive).

For `COc1ccc(-c2nnc3c4ccccc4sn23)cc1`, the GI50 in the assay on HOP-92 was 34.9 µM (inactive); in the assay on SF-539 it was 32.7 µM (inactive); in the assay with COLO 205 it was 42.4 µM (inactive); in the assay on SNB-19, 29.9 µM (inactive); in the assay on OVCAR-5 it was > 100 µM (inactive); in the assay on HCC 2998, 17 µM (inactive). Moreover, the GI50 with OVCAR-3 is 17.1 µM (inactive); with TK-10, > 100 µM (inactive); in the assay with EKVX, 50.7 µM (inactive); in the assay on ACHN, 28 µM (inactive); with UACC-257, 20 µM (inactive); in the assay on CCRF-CEM it was 7.23 µM (inactive). Also, the GI50 was 22.8 µM (inactive) in the assay on SK-MEL-28; 16.6 µM (inactive) in the assay with K562; 14.8 µM (inactive) with LOX IMVI; 6.28 µM with HCT-15; 47 µM (inactive) with OVCAR-4.

On to `CCCCCCCC/C=C\CCCCCCCCNc1ccn(C2OC(COP(=O)(O)OC3CC(n4cc(F)c(=O)[nH]c4=O)OC3CO)C(O)C2O)c(=O)n1` (stereo unspecified), for which the GI50 in the assay on HOP-92 is 7.93 µM (inactive); in the assay with SF-539, < 0.0484 µM (active); in the assay on COLO 205, > 47.3 µM (inactive); with SNB-19, 0.376 µM (active); in the assay with OVCAR-5, > 100 µM (inactive); in the assay with HCC 2998 it was > 100 µM (inactive). Moreover, the GI50 with OVCAR-3 was > 87.5 µM (inactive); with TK-10 it was > 100 µM (inactive); in the assay with EKVX it was > 100 µM (inactive); in the assay on SF-295, 0.638 µM (active); in the assay with ACHN, 0.0177 µM (active); in the assay on UACC-257, > 37.7 µM (inactive). For the same molecule, the GI50 in the assay with CCRF-CEM is < 0.0215 µM (active); with SK-MEL-28, 32.1 µM (inactive); in the assay on K562, 2.52 µM (inactive); in the assay on LOX IMVI, 0.122 µM (active); in the assay on HCT-15 it was 2.48 µM; with OVCAR-4, > 91.8 µM (inactive). Also, the GI50 in the assay on CAKI-1 was 2.09 µM (inactive).

As to `COc1cc(C(C)c2cc3c(cc2OCCO)OCO3)cc(OC)c1OC` (stereo unspecified), the GI50 in the assay on SF-539 is 1.6 µM (inactive); in the assay on COLO 205 it was 1.34 µM (inactive); in the assay with SNB-19 it was 3.93 µM (inactive); in the assay with OVCAR-5, > 100 µM (inactive); with HCC 2998 it was 2.04 µM (inactive); in the assay on OVCAR-3, 0.538 µM (active). The GI50 in the assay on TK-10 was 18.3 µM (inactive); in the assay with EKVX, 3.79 µM (inactive); in the assay with SF-295 it was 0.413 µM (active); in the assay on ACHN it was 10.1 µM (inactive); in the assay on UACC-257 it was 7.16 µM (inactive); in the assay with CCRF-CEM it was 1.82 µM (inactive). Besides, the GI50 with K562 was 0.486 µM (active); with LOX IMVI it was 2.75 µM (inactive); with HCT-15 it was 0.824 µM; in the assay with OVCAR-4, 45.3 µM (inactive); in the assay on CAKI-1, 5.11 µM (inactive).

`Cc1ccc(S(=O)(=O)NC(=O)NC(Cc2ccccc2)C(=O)O)cc1` (stereo unspecified): the GI50 with HOP-92, in the assay with SF-539, with COLO 205, in the assay with SNB-19, in the assay on OVCAR-5 and in the assay with TK-10 was > 100 µM (inactive) throughout. The GI50 with SF-295, in the assay on ACHN, in the assay on UACC-257, in the assay with CCRF-CEM, in the assay with SK-MEL-28 and in the assay with K562 was > 100 µM (inactive) each time. For the same molecule, the GI50 in the assay on LOX IMVI was > 100 µM (inactive); with HCT-15, above 100 µM; in the assay with OVCAR-4, > 100 µM (inactive).

Values taken from ChEMBL document CHEMBL1201862, “PubChem BioAssay data set” (2004).
